From patent US9890140B2, “Maleate salts of a quinazoline derivative useful as an antiangiogenic agent” (AstraZeneca AB, priority 2003, dated 2018) come the findings set out here.

Bounds are passed on as bounds.

Data set [1] concerns VEGF-stimulated proliferation of human umbilical vein endothelial cells (HUVEC). In words: In vitro HUVEC proliferation assay, VEGF-stimulated. The conditions noted are these: read-out: IC50 for inhibition of VEGF-stimulated endothelial cell proliferation. It counts as cell-based. The method, then:
(b) In Vitro HUVEC Proliferation Assay
(§1) HUVEC cells were isolated in MCDB 131 (Gibco BRL)+7.5% v/v foetal calf serum (FCS) and were plated out (at passage 2 to 8), in MCDB 131+2% v/v FCS+3 μg/ml heparin+1 μg/ml hydrocortisone, at a concentration of 1000 cells/well in 96 well plates. After a minimum of 4 hours they were dosed with VEGF (3 ng/ml) and compound. The cultures were then incubated for 4 days at 37° C. with 7.5% CO2. On day 4 the cultures were pulsed with 1 μCi/well of tritiated-thymidine (Amersham product TRA 61) and incubated for 4 hours. The cells were harvested using a 96-well plate harvester (Tomtek) and then assayed for incorporation of tritium with a Beta plate counter. Incorporation of radioactivity into cells, expressed as cpm, was used to measure inhibition of growth factor-stimulated cell proliferation by compounds. This methodology was also used to assess compound effects versus basal HUVEC growth (i.e. endothelial cell proliferation in MCDB 131+2% v/v FCS […]+3 μg/ml heparin+1 μg/ml hydrocortisone without the addition of exogenous VEGF).

The next data set relates to Calu-6 tumour xenograft. The experiment in a line: In vivo solid tumour disease model. The conditions noted are these: once-daily oral, 28 days. Also noted: species or system female athymic Swiss nu/nu mice. The method, then: (c) In Vivo Solid Tumour Disease Model This test measures the capacity of compounds to inhibit solid tumour growth. CaLu-6 tumour xenografts were established in the flank of female athymic Swiss nu/nu mice, by subcutaneous injection of 1×10^6 Calu-6 cells/mouse in 100 μl of a 50% (v/v) solution of Matrigel in serum free culture medium. […] Tumours were measured using vernier calipers and volumes were calculated as: (l×w)×√(l×w)×(π/6), where l is the longest diameter and w the diameter perpendicular to the longest. Test compounds were administered orally once daily for a minimum of 21 days, and control animals received compound diluent. Tumours were measured twice weekly. The level of growth inhibition was calculated by comparison of the mean tumour volume of the control group versus the treatment group using a Student T test and/or a Mann-Whitney Rank Sum Test. The inhibitory effect of compound treatment was considered significant when p<0.05.

Data set [2] relates to basal HUVEC growth (without exogenous VEGF). The experiment in a line: In vitro HUVEC proliferation assay, basal growth. The settings on record: Homo sapiens, no exogenous VEGF, read-out: IC50 for inhibition of basal endothelial cell proliferation. It counts as cell-based. As for the experimental part:
as §1

Data set [3] is described as follows: Solid state stability of the free base on dehydration / micronisation (XRPD). It counts as physicochemical. The method, then:
This is shown by a broadening of the peaks and formation of an amorphous 'hump'-see FIG. 4. […] The X-ray powder diffraction spectra were determined by mounting a sample of the crystalline salt on Siemens single silicon crystal (SSC) wafer mounts and spreading out the sample into a thin layer with the aid of a microscope slide. The sample was spun at 30 revolutions per minute (to improve counting statistics) and irradiated with X-rays generated by a copper long-fine focus tube operated at 40 kV and 40 mA with a wavelength of 1.5406 angstroms. The collimated X-ray source was passed through an automatic variable divergence slit set at […] and the reflected radiation directed through a 2 mm antiscatter slit and a 0.2 mm detector slit. The sample was exposed for 1 second per 0.02 degree 2-theta increment (continuous scan mode) over the range 2 degrees to 40 degrees 2-theta in theta-theta mode. The running time was 31 minutes and 41 seconds. The instrument was equipped with a scintillation counter as detector. Control and data capture was by means of a Dell Optiplex 686 NT 4.0 Workstation operating with Diffract+ software. Persons skilled in the art of X-ray powder diffraction will realise that the relative intensity of peaks can be affected by, for example, grains above 30 microns in size and non-unitary aspect ratios which may affect analysis of samples. […]

Data set [4] can be described thus: Evidence for polymorphism from DSC thermograms. It counts as physicochemical. The method, then:
Analytical Instrument: Mettler DSC820e. Typically less than 5 mg of material contained in a 40 μl aluminium pan fitted with a pierced lid was heated over the temperature range 25° C. to 325° C. at a constant heating rate of 10° C. per minute. A purge gas using nitrogen was used—flow rate 100 ml per minute.

The nature of data set [5]: Evidence of hydrate formation (vapour sorption or TGA). The conditions noted are these: vapour sorption (hysteresis, water absorption) or TGA. It is filed as physicochemical. The method, then: About 5 mg of material contained in a quartz holder at 25° C. was subjected to humidified nitrogen at the following relative humidities (RH): 0, 20, 40, 60, 80, 95, 80, 60, 40, 20, 0% RH in duplicate. Typically between 3 and 12 mg of material contained in a 70 μl alox (aluminium oxide) crucible was heated over the temperature range 25° C. to 325° C. at a constant heating rate of 10° C. per minute. A purge gas using helium was used—flow rate 50 ml per minute.

Data set [6] in a line: Dynamic vapour sorption, moisture content at 80% RH. It is filed as physicochemical. The settings on record: 80% relative humidity. As for the experimental part:
Dynamic Vapour Sorption Analytical Instrument: Surface Measurements Systems Dynamic Vapour Sorption Analyser. About 5 mg of material contained in a quartz holder at 25° C. was subjected to humidified nitrogen at the following relative humidities (RH): 0, 20, 40, 60, 80, 95, 80, 60, 40, 20, 0% RH in duplicate.

A short description of data set [7]: Crystallinity of AZD2171 salts. It counts as physicochemical.

Regarding `COc1cc2c(Oc3ccc4[nH]c(C)cc4c3F)ncnc2cc1OCCCN1CCCC1` [AZD2171, 4-((4-fluoro-2-methyl-1H-indol-5-yl)oxy)-6-methoxy-7-(3-(pyrrolidin-1-yl)propoxy)quinazoline], the IC50 in data set [1] is 400 ± 200 pM; in data set [2], greater than 500000 pM. For the same compound, the “Inhibition of growth of Calu-6 tumour xenograft” value with Calu-6 tumour xenograft (1.5 mg/kg/day, P<0.01) is listed as 49%; in the data set on Calu-6 tumour xenograft (3 mg/kg/day, P<0.0001), 69%; with Calu-6 tumour xenograft (6 mg/kg/day, P<0.0001), 91%. In addition, in data set [3] (heating to 100° C., FIG. 3), the “Solid form after dehydration” value is reported as “becomes amorphous”. Moreover, in data set [3] (micronisation, FIG. 4), the “Solid form after particle size reduction” value was “amorphous material does indeed form”.

For Fumarate, the “No of Polymorphs” value in data set [4] is “≧3”. In addition, the “Evidence of Hydrate Formation (Yes/No)” value in data set [5] was “No”. The compound also showed a Moisture Content at 80% RH in data set [6] of 3.5%. In addition, in data set [7], the “Crystalline (Yes/No)” value is “Yes”.

As for Malonate, the “No of Polymorphs” value in data set [4] is “≧3”. Also, the “Evidence of Hydrate Formation (Yes/No)” value in data set [5] is listed as “Yes”. Besides, the “Crystalline (Yes/No)” value in data set [7] was “Yes”.
